System: mouse models with androgenic hair loss
Assay: Therapeutic effect of microneedle patches in mouse models with androgenic hair loss built by topical testosterone
Format: in vivo
Conditions: testosterone-induced androgenic hair loss mice; patches used 15 days, replaced every three days; Minoxidil solution applied daily for 13 days
Method: The therapeutic effect of the anti-hair loss and hair growth integrated core-shell microneedle patch is tested, the mouse models with androgenic hair loss are built by topical administration of testosterone solution every day for 28 days, five groups of mouse models with androgenic hair loss are used to test the effect of the microneedle patch, one of the groups is a model group to which only testosterone solution is applied, the blank microneedle patch, the nano-enzyme microneedle patch (prepared in Comparative Example 1) and the core-shell microneedle patch (prepared in Embodiment 1) are used on the other three groups of mouse models with androgenic hair loss respectively, the patches are used for 15 days and replaced every three days, a Minoxidil solution is used for the last group and applied every day for 13 consecutive days. The measurement results are shown in Table 1, and the therapeutic effect of the anti-hair loss and hair growth integrated core-shell microneedle patch is judged by scoring the hair diameter, percentage of Ki67 positive cells and hair cycle.

Structure (SMILES): Nc1cc(N2CCCCC2)nc(N)[n+]1[O-] [Minoxidil]
- Hair cycle score: 22
- Hair diameter: 11 μm
- Ki67 positive cells: 20%

From patent publication US20230071574A1, “ANTI-HAIR LOSS AND HAIR GROWTH INTEGRATED CORE-SHELL MICRONEEDLE PATCH” (Tangyi Holdings (Shenzhen) Limited, priority 2021, published 2023)
